Consider 25 compounds from ChEMBL document CHEMBL4425185, “Efforts towards the optimization of a bi-aryl class of potent IRAK4 inhibitors” (Bioorg Med Chem Lett, 2016).

The nature of data set [1]: Clearance in rat. The data set is classed as ADME. As to conditions: in vivo; call rule not given here.
The target of data set [2] is T1, Interleukin-1 receptor-associated kinase 4 (Homo sapiens, UniProt Q9NWZ3).
T1 sequence (Q9NWZ3 whole entry): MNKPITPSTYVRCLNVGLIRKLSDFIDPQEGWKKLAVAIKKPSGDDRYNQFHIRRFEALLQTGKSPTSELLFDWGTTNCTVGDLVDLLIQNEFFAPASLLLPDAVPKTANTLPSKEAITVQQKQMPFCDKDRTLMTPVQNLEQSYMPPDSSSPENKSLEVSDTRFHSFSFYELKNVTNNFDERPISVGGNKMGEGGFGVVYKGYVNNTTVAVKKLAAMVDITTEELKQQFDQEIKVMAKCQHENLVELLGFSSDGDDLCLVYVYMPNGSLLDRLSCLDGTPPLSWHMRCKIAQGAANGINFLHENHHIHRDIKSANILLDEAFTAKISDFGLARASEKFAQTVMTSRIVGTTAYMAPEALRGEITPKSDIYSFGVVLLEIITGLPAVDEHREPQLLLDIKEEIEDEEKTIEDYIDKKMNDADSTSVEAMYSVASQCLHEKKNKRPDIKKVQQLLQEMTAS
The data set can be described thus: Inhibition of […] IRAK4 in human THP1-XBlue cells assessed as decrease in NF-kappaB level preincubated for 1 hr followed by stimulation with LPS for 4 to 5 hrs measured after 30 mins by spectrophotometric analysis. The data set is classed as cell-based.

Data set [3] concerns the target Voltage-gated inwardly rectifying potassium channel KCNH2 (Homo sapiens, UniProt Q12809). The data set can be described thus: Inhibition of MK499 binding to human ERG.
For data set [4], the target named is T2, Interleukin-1 receptor-associated kinase 4 (Homo sapiens) (UniProt Q9NWZ3).
T2 sequence (whole entry): T1 sequence (Q9NWZ3 whole entry)
As to the kind of experiment: Ratio of IC50 for IRAK4 inhibition in human THP1-XBlue cells to IC50 for inhibition of human IRAK4. The format is cell-based.

The target in data set [5] is T1, Interleukin-1 receptor-associated kinase 4. As to the kind of experiment: Inhibition of human recombinant N-terminal GST-tagged full-length IRAK4 expressed in baculovirus infected Sf9 insect cells using 5FAM-RKRQGSVRRRVH-COOH as substrate in presence of ATP by IMAP fluorescence polarization assay.
Data set [6] in a line: Clearance in rat at 0.15 mg/kg, iv. The format is ADME, organism-based. The note with it: in vivo.
Data set [7] in a line: Apparent permeability in dog MDCK2-MDR1 cells. The data set is classed as ADME, cell-based, Canis lupus familiaris. The note with it: MDCK-MDR1.
The subject of data set [8] is MDR1. As to the kind of experiment: Efflux ratio of permeability in dog MDCK2-MDR1 cells. The format is ADME, cell-based, Canis lupus familiaris. As to conditions: MDCK-MDR1.
The test system of data set [9] is Cytochrome P450. The data set can be described thus: Induction of CYP450 (unknown origin). The format is ADME. As to conditions: human.
Data set [10] deals with Cytochrome P450. As to the kind of experiment: Inhibition of CYP450 (unknown origin). The data set is classed as ADME, protein assay. As to conditions: human.
Data set [11] is filed under the species Homo sapiens. The data set can be described thus: Selectivity for human IRAK4 over GST-tagged human MINK1.
The species entered for data set [12] is Homo sapiens. The data set can be described thus: Selectivity for human IRAK4 over human LRRK2.
Data set [13] can be described thus: Clearance in rat at 1.45 mg/kg, iv. The format is ADME, organism-based. As to conditions: in vivo.
Data set [14] can be described thus: Clearance in rat at 2 mg/kg, iv. The data set is classed as ADME, organism-based. The note with it: in vivo.

By clearance is commonly meant a measure of how efficiently the substance is removed, as volume per time. What is called IC50 is the concentration needed to halve the response being measured. What is called Papp is a coefficient for how fast a substance crosses the barrier. In general, efflux ratio refers to a quotient of directional permeabilities that is used to spot active efflux.

Structures are written as SMILES.

Chain of Voltage-gated inwardly rectifying potassium channel KCNH2 (Q12809 whole entry): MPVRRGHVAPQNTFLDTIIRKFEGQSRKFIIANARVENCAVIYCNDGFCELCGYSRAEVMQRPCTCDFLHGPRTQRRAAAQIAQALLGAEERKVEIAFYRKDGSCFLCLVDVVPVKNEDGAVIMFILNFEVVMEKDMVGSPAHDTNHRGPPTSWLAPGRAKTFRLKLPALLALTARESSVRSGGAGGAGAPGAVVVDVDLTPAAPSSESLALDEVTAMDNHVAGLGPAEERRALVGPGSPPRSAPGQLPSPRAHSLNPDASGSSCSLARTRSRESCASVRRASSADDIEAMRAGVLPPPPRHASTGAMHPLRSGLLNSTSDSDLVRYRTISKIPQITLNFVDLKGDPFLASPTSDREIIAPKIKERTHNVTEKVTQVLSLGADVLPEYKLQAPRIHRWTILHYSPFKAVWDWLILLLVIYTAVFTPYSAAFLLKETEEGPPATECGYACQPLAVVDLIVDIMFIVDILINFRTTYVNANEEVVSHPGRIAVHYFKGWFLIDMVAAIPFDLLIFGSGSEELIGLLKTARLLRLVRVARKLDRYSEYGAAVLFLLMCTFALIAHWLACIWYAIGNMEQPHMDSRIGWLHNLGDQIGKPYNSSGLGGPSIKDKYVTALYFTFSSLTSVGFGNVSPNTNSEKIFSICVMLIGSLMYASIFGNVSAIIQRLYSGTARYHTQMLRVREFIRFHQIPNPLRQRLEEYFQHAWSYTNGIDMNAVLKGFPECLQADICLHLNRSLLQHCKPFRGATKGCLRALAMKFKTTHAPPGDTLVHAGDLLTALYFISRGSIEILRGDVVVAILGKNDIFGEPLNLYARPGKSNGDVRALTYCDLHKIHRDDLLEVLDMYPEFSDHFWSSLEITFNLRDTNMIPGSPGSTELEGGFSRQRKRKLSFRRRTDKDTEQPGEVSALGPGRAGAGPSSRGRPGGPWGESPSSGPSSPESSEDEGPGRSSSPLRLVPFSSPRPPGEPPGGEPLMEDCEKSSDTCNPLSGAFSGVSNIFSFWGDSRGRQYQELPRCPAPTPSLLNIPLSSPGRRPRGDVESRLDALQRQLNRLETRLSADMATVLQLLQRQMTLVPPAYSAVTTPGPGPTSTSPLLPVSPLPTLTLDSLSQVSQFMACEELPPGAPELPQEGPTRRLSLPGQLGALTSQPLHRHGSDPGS

`Cn1cc(NC(=O)c2cccc(-c3cccnc3)n2)c(C(N)=O)n1`: the clearance in data set [1] is 54 mL/min/kg.
Regarding `Cn1cc(NC(=O)c2cccc(-c3ccnc(NCC4CC4)c3)n2)c(C(=O)N2CC(CN)C2)n1`, the IC50 in data set [2] amounted to 477 nM; in [3], 40000 nM. For the same compound, in [1], the clearance was found to be 6 mL/min/kg. In [4], the Ratio IC50 was < 3.
Regarding `Cn1cc(NC(=O)c2cccc(-c3ccnc(NCC(F)(F)F)c3)n2)c(C(N)=O)n1`, the IC50 in data set [2] turned out to be 294 nM. Also, the Ratio IC50 in [4] is < 3.
For `CN(C)CCCNC(=O)c1nn(C)cc1NC(=O)c1cccc(-c2ccnc(NCC3CC3)c2)n1`, in [5], the IC50 was 542 nM.
Take `Cn1cc(NC(=O)c2cc(-c3ccnc(NCC4CC4)c3)ccn2)c(C(N)=O)n1`: in [5], the IC50 is > 5000 nM.
As to `Cn1cc(NC(=O)c2cnn3ccc(N4CCNCC4)nc23)c(C(N)=O)n1`, the values for the IC50 in data set [5], in data set [2] and in data set [3] were 38 nM, 150 nM and > 60000 nM, respectively. Further, the clearance in data set [6] turned out to be 39 mL/min/kg; in data set [1], 3 mL/min/kg. In data set [7], the Papp was found to be 1.6 ×10⁻⁶ cm/s. The efflux ratio in data set [8] is 1. Moreover, in [9], the Activity entry is recorded as “Not Active”. Moreover, in data set [10], the “inhibition (INH)” value is “Not Active”. Moreover, the Ratio IC50 in data set [4] is < 3. In addition, the Selectivity ratio in data set [11] and in [12] was < 10 each time.
In turn, `Cn1cc(NC(=O)c2ccnc(-c3ccnc(NCC4CC4)c3)n2)c(C(N)=O)n1` gave a clearance in [1] of 43 mL/min/kg. In addition, the IC50 in [3] was 1900 nM.
`CN(C)[C@H]1CN(C(=O)c2nn(C)cc2NC(=O)c2cccc(-c3ccnc(NCC4CC4)c3)n2)C[C@@H]1O`: the IC50 in [2] was 533 nM; in [3], > 60000 nM. Moreover, the clearance in data set [1] was 37 mL/min/kg. For the same compound, the Papp in data set [7] came to 11 ×10⁻⁶ cm/s. Besides, in data set [4], the Ratio IC50 is < 3.
`Cn1cc(NC(=O)c2cccc(-c3cncc(Cl)c3)n2)c(C(N)=O)n1`: the 50% inhibitory concentration (IC50) in [5] turned out to be 106 nM; in data set [2] it was 202 nM. Also, the Ratio IC50 in data set [4] was < 3.
As for `Cn1cc(NC(=O)c2cccc(-c3ccnc(NCC4CC4)c3)n2)c(C(=O)N2CCC(O)C2)n1` (stereo not given), in data set [5], the IC50 is > 5000 nM.
Turning to `CC(C)CNC(=O)c1nn(C)cc1NC(=O)c1cccc(-c2ccnc(NCC3CC3)c2)n1`, the IC50 in data set [5] is > 5000 nM.
Still for that read-out and setting: then `Cn1cc(NC(=O)c2cccc(-c3ccsc3)n2)c(C(N)=O)n1`, with 401 nM.
Regarding `Cn1cc(NC(=O)c2cccc(-c3ccc(C4CC4)nc3)n2)c(C(N)=O)n1`, the IC50 in [5] is 121 nM; in data set [2] it was 307 nM; in data set [3], > 60000 nM. Also, the clearance in [1] was 30 mL/min/kg. Further, in data set [4], the Ratio IC50 was < 3.
In the case of `Cn1cc(NC(=O)c2cccc(-c3ccccc3)n2)c(C(N)=O)n1`, the IC50 in data set [5] turned out to be 3650 nM.
The same measure, in the same setting: the value for `Cn1cc(NC(=O)c2cccc(-c3ccnc(NCC4CC4)c3)n2)c(C(=O)NCc2ncc[nH]2)n1` was 1610 nM.
The same measure, in the same setting: then `Cn1cc(NC(=O)c2cccc(-c3ccnc(NCC4CC4)c3)n2)c(C(=O)NCc2ccccc2)n1`, with > 5000 nM; and `Cn1cc(NC(=O)c2cccc(-c3ccnc(NCC4CC4)c3)n2)c(C(=O)NC2CCCC2)n1`, with > 5000 nM.
`Cn1cc(NC(=O)c2cncc(-c3ccnc(NCC4CC4)c3)c2)c(C(N)=O)n1`: the clearance in data set [1] is 53 mL/min/kg; in [13], 31 mL/min/kg. The IC50 in [3] was found to be 5200 nM.
As to `CN1CCCC(CNC(=O)c2nn(C)cc2NC(=O)c2cccc(-c3ccnc(NCC4CC4)c3)n2)C1` (stereo not given), the clearance in data set [1] worked out at 21 mL/min/kg. For the same compound, in data set [3], the IC50 is 12000 nM.
In the case of `Cn1cc(NC(=O)c2cccc(-c3ccnc(NCC4CC4)c3)n2)c(C(N)=O)n1`, the IC50 in data set [2] was 169 nM; in data set [3], 2900 nM. The results for the clearance in data set [1] and in data set [14] were 17 mL/min/kg and 33 mL/min/kg, respectively. For the same compound, in [7], the Papp amounted to 18 ×10⁻⁶ cm/s. For the same compound, the efflux ratio in data set [8] is 0.3. In data set [9], the Activity entry was “Not Active”. Moreover, the “inhibition (INH)” value in data set [10] is “Not Active”. The Ratio IC50 in data set [4] is < 3. Further, the Selectivity ratio in data set [11] and in data set [12] was < 10 throughout.
Regarding `Cn1cc(NC(=O)c2cccc(-c3ccnc(N)c3)n2)c(C(N)=O)n1`, the values for the IC50 in [2] and in data set [3] were 259 nM and 25000 nM, respectively. In addition, the values for the clearance in data set [1] and in data set [14] were 24 mL/min/kg and 69 mL/min/kg, respectively. Moreover, the Papp in data set [7] worked out at 23 ×10⁻⁶ cm/s. The Ratio IC50 in [4] was < 3.
`Cn1cc(-c2cccc(C(=O)Nc3cn(C)nc3C(N)=O)n2)cn1`: the figures for the IC50 in data set [5], in [2] and in [3] were 36 nM, 138 nM and > 60000 nM, respectively. Moreover, the clearance in data set [6] and in [1] was 53 mL/min/kg throughout. For the same compound, in data set [7], the apparent permeability coefficient (Papp) stood at 29 ×10⁻⁶ cm/s. In addition, the efflux ratio in [8] is 0.5. In addition, the Activity result in data set [9] is reported as “Not Active”. In [10], the “inhibition (INH)” value is listed as “Not Active”. Also, in [4], the Ratio IC50 was < 3. The Selectivity ratio in [11] and in [12] was < 10 throughout.
On to `Cn1cc(NC(=O)c2cccc(-c3cnccc3Cl)n2)c(C(N)=O)n1`, for which the IC50 in data set [5] was 683 nM.
Same read-out and setting: then `Cn1cc(NC(=O)c2cccc(-c3ccnc(NCC4CC4)c3)n2)c(C(=O)NCc2ccncc2)n1`, with > 5000 nM.
In the case of `Cn1cc(NC(=O)c2cccc(-c3ccnc(NCC4CC4)c3)c2)c(C(N)=O)n1`, the IC50 amounted to 187 nM in [5], 428 nM in data set [2] and 6100 nM in data set [3]. The clearance in data set [1] was 25 mL/min/kg; in data set [13], 32 mL/min/kg. Besides, in data set [4], the Ratio IC50 is < 3.
